Laboratory results as given in the supplement of paper PMC10307832.

Key:
Assay in all cases: relative viability (nuclei count vs DMSO), 5 days (fraction); higher = more cells survive
RAF265 + OSI-027 = compound: Cn1c(Nc2ccc(C(F)(F)F)cc2)nc2cc(Oc3ccnc(-c4ncc(C(F)(F)F)[nH]4)c3)ccc21 [RAF265] + COc1cccc2cc(-c3nc([C@H]4CC[C@H](C(=O)O)CC4)n4ncnc(N)c34)[nH]c12 [OSI-027] (partner 0.5 µM)
How it was run: (§1)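 The day after seeding in 1536-well plates, lung cancer cell lines were treated by pin tool with a single drug, or with a fixed anchor-drug dose together with five library-drug doses (not always all listed) in √10 steps. After 5 days, a combined fix-and-stain solution (final 0.05% Triton X-100, 1% formaldehyde, 1 ug/ml Hoechst) was added. Nuclei counted on 4× images gave relative viability as treated counts over vehicle counts, reported as the median of duplicate plates.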

IPA-3 + Linsitinib = compound: C1=CC=C2C(=C1)C=CC(=C2SSC3=C(C=CC4=CC=CC=C43)O)O [IPA-3] + C[C@]1(O)C[C@@H](c2nc(-c3ccc4ccc(-c5ccccc5)nc4c3)c3c(N)nccn32)C1 [Linsitinib] (partner 1 µM)
How it was run: as §1

Doramapimod + Pemetrexed = compound: Cc1ccc(-n2nc(C(C)(C)C)cc2NC(=O)Nc2ccc(OCCN3CCOCC3)c3ccccc23)cc1 [Doramapimod] + Nc1nc2[nH]cc(CCc3ccc(C(=O)N[C@@H](CCC(=O)O)C(=O)O)cc3)c2c(=O)[nH]1 [Pemetrexed] (partner 0.2 µM)
How it was run: as §1

IPA-3 + Bortezomib = compound: C1=CC=C2C(=C1)C=CC(=C2SSC3=C(C=CC4=CC=CC=C43)O)O [IPA-3] + CC(C)C[C@H](NC(=O)[C@H](Cc1ccccc1)NC(=O)c1cnccn1)B(O)O [Bortezomib] (partner 0.002 µM)
How it was run: as §1

Cell Line	relative viability (RAF265 + OSI-027; first compound 0.01 µM)	relative viability (RAF265 + OSI-027; first compound 0.03162 µM)	relative viability (RAF265 + OSI-027; first compound 0.1 µM)	relative viability (RAF265 + OSI-027; first compound 0.3162 µM)	relative viability (RAF265 + OSI-027; first compound 1 µM)	relative viability (IPA-3 + Linsitinib; first compound 0.2 µM)	relative viability (IPA-3 + Linsitinib; first compound 0.6325 µM)	relative viability (IPA-3 + Linsitinib; first compound 2 µM)	relative viability (IPA-3 + Linsitinib; first compound 6.325 µM)	relative viability (IPA-3 + Linsitinib; first compound 20 µM)	relative viability (Doramapimod + Pemetrexed; first compound 0.02 µM)	relative viability (Doramapimod + Pemetrexed; first compound 0.06325 µM)	relative viability (Doramapimod + Pemetrexed; first compound 0.2 µM)	relative viability (Doramapimod + Pemetrexed; first compound 0.6325 µM)	relative viability (Doramapimod + Pemetrexed; first compound 2 µM)	relative viability (IPA-3 + Bortezomib; first compound 0.2 µM)	relative viability (IPA-3 + Bortezomib; first compound 0.6325 µM)	relative viability (IPA-3 + Bortezomib; first compound 2 µM)	relative viability (IPA-3 + Bortezomib; first compound 6.325 µM)	relative viability (IPA-3 + Bortezomib; first compound 20 µM)
201T	0.794	0.799	0.788	0.58	0.351	0.986	0.992	1.04	1.04	1.09	0.308	0.333	0.347	0.331	0.318	1.08	0.931	1.08	1.12	1.13
A549	–	–	–	–	–	0.653	0.582	0.683	0.591	0.775	–	–	–	–	–	–	–	–	–	–
A-427	0.4	0.334	0.312	0.18	0.129	1.13	0.951	1.18	1.12	1.13	0.926	1	1	–	0.988	0.976	0.974	1.01	0.942	1.01
ABC-1	0.39	0.48	0.365	0.408	0.31	0.862	0.752	–	0.715	1.06	–	–	–	–	–	0.297	0.345	–	0.295	0.257
BEN	0.261	0.29	0.312	0.311	0.293	0.986	1.01	0.974	1.05	1.18	0.74	0.849	0.795	0.673	0.795	0.807	0.707	0.806	0.823	0.799
CAL-12T	0.633	0.45	0.313	0.281	0.327	0.93	0.715	0.914	0.79	0.935	1.02	1.08	1.25	1.22	0.947	0.956	0.987	0.847	0.935	1.15
COR-L23	0.843	0.723	0.501	0.278	0.168	1.13	0.837	0.92	0.797	0.819	0.222	0.203	0.212	0.19	0.2	1.12	0.946	1.06	0.939	0.802
COR-L 105	0.798	0.676	0.608	0.315	0.43	1.07	0.98	0.843	0.542	0.962	1.21	1.05	0.995	1.31	0.951	0.856	0.885	0.7	0.879	0.603
Calu-6	–	–	–	–	–	1.14	0.937	0.878	0.952	0.958	–	–	–	–	–	1.02	1.04	0.895	0.959	0.837
ChaGo-K-1	0.563	0.628	0.5	0.44	0.38	–	–	–	–	–	0.263	0.254	0.255	0.26	0.243	1.03	1.1	0.861	1.08	1.31
EBC-1	–	–	–	–	–	1.12	0.729	0.911	0.841	0.871	–	–	–	–	–	0.488	0.548	0.546	0.546	0.581
EKVX	0.689	0.666	0.744	0.483	0.534	1.1	1.06	1.05	0.97	1.43	0.426	0.34	0.325	0.415	0.357	1.31	0.995	1.12	0.988	1.54
EMC-BAC-2	0.375	0.342	0.219	0.232	0.134	0.855	0.808	0.884	0.804	0.907	0.455	0.426	0.418	0.46	0.369	1.16	1.11	1.04	1.04	1.22
EPLC-272H	0.251	0.288	0.237	0.218	0.184	1.16	1.13	1.22	1.14	1.41	0.351	0.301	0.303	0.374	0.327	0.87	0.95	0.816	0.861	1.13
H3255	0.741	0.601	0.563	–	0.473	1.09	0.874	0.932	0.963	1.11	0.577	0.56	0.562	0.559	0.525	0.818	0.709	0.601	0.754	0.846
HARA	0.491	0.417	0.423	0.187	0.101	1.08	0.912	0.935	0.916	1.02	0.246	0.234	0.266	0.314	0.225	1.16	1.06	1.13	1.01	1.24
HCC-15	0.674	0.605	0.566	0.26	0.304	0.934	0.81	0.951	0.888	0.918	0.225	0.231	0.245	0.211	0.224	1.34	0.99	0.838	1.02	1.21
HCC-44	0.735	0.479	0.636	0.449	0.477	0.772	0.588	0.708	0.632	0.686	0.673	0.649	0.712	0.605	0.614	0.918	0.852	0.897	0.894	0.835

Cell Line	relative viability (RAF265 + OSI-027; first compound 0.01 µM)	relative viability (RAF265 + OSI-027; first compound 0.03162 µM)	relative viability (RAF265 + OSI-027; first compound 0.1 µM)	relative viability (RAF265 + OSI-027; first compound 0.3162 µM)	relative viability (RAF265 + OSI-027; first compound 1 µM)	relative viability (IPA-3 + Linsitinib; first compound 0.2 µM)	relative viability (IPA-3 + Linsitinib; first compound 0.6325 µM)	relative viability (IPA-3 + Linsitinib; first compound 2 µM)	relative viability (IPA-3 + Linsitinib; first compound 6.325 µM)	relative viability (IPA-3 + Linsitinib; first compound 20 µM)	relative viability (Doramapimod + Pemetrexed; first compound 0.02 µM)	relative viability (Doramapimod + Pemetrexed; first compound 0.06325 µM)	relative viability (Doramapimod + Pemetrexed; first compound 0.2 µM)	relative viability (Doramapimod + Pemetrexed; first compound 0.6325 µM)	relative viability (Doramapimod + Pemetrexed; first compound 2 µM)	relative viability (IPA-3 + Bortezomib; first compound 0.2 µM)	relative viability (IPA-3 + Bortezomib; first compound 0.6325 µM)	relative viability (IPA-3 + Bortezomib; first compound 2 µM)	relative viability (IPA-3 + Bortezomib; first compound 6.325 µM)	relative viability (IPA-3 + Bortezomib; first compound 20 µM)
IA-LM	–	–	–	–	–	0.922	0.526	0.639	0.505	0.404	–	–	–	–	–	0.883	0.808	0.842	0.703	0.546
LK-2	0.212	0.202	0.176	0.177	0.203	0.553	0.436	0.595	0.526	0.518	0.283	0.286	0.283	0.198	0.157	–	–	–	–	–
NCI-H358	0.864	0.617	0.305	0.194	0.18	0.789	0.687	0.792	0.686	0.882	0.176	0.167	0.162	0.169	0.175	–	–	–	–	–
NCI-H522	0.79	0.741	0.655	0.541	0.628	–	–	–	–	–	0.909	1.05	0.797	0.715	0.796	–	–	–	–	–
NCI-H727	0.7	0.8	0.487	0.438	0.347	0.265	0.186	0.271	0.34	0.226	–	–	–	–	–	0.841	0.788	0.857	0.866	1.12
NCI-H1299	–	–	–	–	–	1.16	0.99	0.942	0.946	0.999	–	–	–	–	–	0.995	1.01	0.996	0.996	1
NCI-H1395	0.72	0.571	0.638	0.537	0.487	1.2	1.04	1.19	1.02	1.11	0.82	1.04	0.889	0.836	0.696	–	–	–	–	–
NCI-H1623	0.462	0.43	0.467	0.291	0.364	–	–	–	–	–	–	–	–	–	–	–	–	–	–	–
NCI-H1648	0.266	0.298	0.277	0.3	0.246	–	–	–	–	–	0.745	0.87	0.584	0.705	0.632	–	–	–	–	–
NCI-H1650	0.631	0.598	0.8	0.456	0.649	–	–	–	–	–	0.345	0.357	0.447	0.387	0.375	0.223	0.193	0.186	0.283	0.27
NCI-H1703	–	–	–	–	–	1.1	0.39	0.974	0.787	1.05	–	–	–	–	–	0.265	0.288	0.463	0.579	0.445
NCI-H1793	0.308	0.297	0.224	–	0.188	1.24	0.794	0.977	1.06	1.15	0.885	0.963	0.957	0.918	0.657	–	–	–	–	–
NCI-H1944	0.516	0.5	0.357	0.317	0.237	1.2	1.12	1.23	1.48	1.3	0.573	0.623	0.503	0.595	0.572	–	–	–	–	–
NCI-H2170	0.74	0.512	0.623	0.333	0.452	–	–	–	–	–	0.278	0.261	0.256	0.28	0.259	–	–	–	–	–
NCI-H2342	0.598	0.722	0.598	0.525	0.514	–	–	–	–	–	0.733	0.759	0.789	0.788	0.784	–	–	–	–	–
SK-MES-1	0.544	0.355	0.186	0.223	0.187	1.13	1.01	1.07	1.07	1.02	0.895	0.96	0.986	0.942	0.795	–	–	–	–	–
SW 900	0.569	0.661	0.464	0.378	0.391	–	–	–	–	–	0.513	0.513	0.478	0.502	0.479	–	–	–	–	–
